Article PMC6891286, “Towards the Development of an In vivo Chemical Probe for Cyclin G Associated Kinase (GAK)” (Molecules, 2019)
Read-outs that look alike come from different tables or passages of the source.

Columns and labels:
CYP2A6 = tested on: CYP2A6; parameters: method as in PMID 18936109; conditions: cited from earlier work
CYP3A4 = tested on: CYP3A4; parameters: method as in PMID 18936109; conditions: cited from earlier work
CYP1A2 = tested on: CYP1A2; parameters: method as in PMID 18936109; conditions: cited from earlier work
CYP2B6 = tested on: CYP2B6; parameters: method as in PMID 18936109; conditions: cited from earlier work
CYP2C8 = tested on: CYP2C8; parameters: method as in PMID 18936109; conditions: cited from earlier work
CYP2C9 = tested on: CYP2C9; parameters: method as in PMID 18936109; conditions: cited from earlier work
CYP2C19 = tested on: CYP2C19; parameters: method as in PMID 18936109; conditions: cited from earlier work
CYP2D6 = tested on: CYP2D6; parameters: method as in PMID 18936109; conditions: cited from earlier work
[1] = mouse liver microsome metabolic stability; conditions: for CLint scaled / half-life: mouse; for half-life: mean average, n = 2
Method: SGC-GAK-1 (1) was incubated with MLMs in the presence or absence of added NADPH, and the compound was quantified at various time points over an hour.
The metabolic stability of the 4-anilinoquinolines (8–13) were evaluated in MLMs (Table 1). Half-lives for metabolic clearance were normalized to propranolol in each experimental run to control for variations in the MLM preparations.

[2] = pharmacokinetic profiling in mice, oral dosing; assay type: in vivo; conditions: C57BL/6 mice, 10 mg/kg po; for Cmax / AUC(0-inf) / Tmax: 10 mg/kg
Method: Pharmacokinetic profiling was performed by SAI Life Sciences (Hyderabad, India). […] Prior approval of the Institutional Animal Ethics Committee (IAEC) was obtained before initiation of the study. Healthy male C57BL/6 mice (8–12 weeks old) weighing between 20 and 35 g were procured from (Envigo Research Private Ltd., City, Hyderabad, India). Three mice were housed in each cage. […] Temperature and humidity were recorded by an automatically controlled data logger system. All animals were provided a laboratory rodent diet (Envigo Research Private Ltd., Hyderabad, India). Reverse osmosis water treated with ultraviolet light was provided ad libitum. Eighteen male mice were weighed and divided in to two groups (Group 1 and Group 2), with nine mice in each group. […] The dosing volume administered was 10 mL/kg for the oral route. […] Plasma samples were separated by centrifugation at 4000 rpm for 10 min and stored below −70 °C until bioanalysis. […] The plasma concentration-time data were then used for the pharmacokinetic analysis. A non-compartmental analysis module in Phoenix WinNonlin (Version 6.3, Certara USA Inc., Raleigh, NC, USA) was used to assess the pharmacokinetic parameters. Maximum concentration (Cmax) and time to reach the maximum concentration (Tmax) were the observed values. The areas under the concentration time curve (AUClast and AUCinf) were calculated by linear trapezoidal rule.

AAK1 = AAK1 (Homo sapiens, UniProt Q2M2I8); assay: NAK family TR-FRET binding displacement assay; conditions: NAK family FRET screening
STK16 = STK16 (Homo sapiens, UniProt O75716); assay: NAK family TR-FRET binding displacement assay; conditions: NAK family FRET screening; read-out: Binding displacement assay STK16 Ki
Kinetic Solubility = assay type: physicochemical; conditions: pH 7.4, aqueous buffer, kinetic from dmso stock, PBS pH7.4 (100 µM)
GAK [3] = target: T1, GAK (Homo sapiens, UniProt O14976); parameters: method as in PMID 30768268, PMID 30973735; conditions: cited from earlier work
T1 sequence (O14976 1-1311): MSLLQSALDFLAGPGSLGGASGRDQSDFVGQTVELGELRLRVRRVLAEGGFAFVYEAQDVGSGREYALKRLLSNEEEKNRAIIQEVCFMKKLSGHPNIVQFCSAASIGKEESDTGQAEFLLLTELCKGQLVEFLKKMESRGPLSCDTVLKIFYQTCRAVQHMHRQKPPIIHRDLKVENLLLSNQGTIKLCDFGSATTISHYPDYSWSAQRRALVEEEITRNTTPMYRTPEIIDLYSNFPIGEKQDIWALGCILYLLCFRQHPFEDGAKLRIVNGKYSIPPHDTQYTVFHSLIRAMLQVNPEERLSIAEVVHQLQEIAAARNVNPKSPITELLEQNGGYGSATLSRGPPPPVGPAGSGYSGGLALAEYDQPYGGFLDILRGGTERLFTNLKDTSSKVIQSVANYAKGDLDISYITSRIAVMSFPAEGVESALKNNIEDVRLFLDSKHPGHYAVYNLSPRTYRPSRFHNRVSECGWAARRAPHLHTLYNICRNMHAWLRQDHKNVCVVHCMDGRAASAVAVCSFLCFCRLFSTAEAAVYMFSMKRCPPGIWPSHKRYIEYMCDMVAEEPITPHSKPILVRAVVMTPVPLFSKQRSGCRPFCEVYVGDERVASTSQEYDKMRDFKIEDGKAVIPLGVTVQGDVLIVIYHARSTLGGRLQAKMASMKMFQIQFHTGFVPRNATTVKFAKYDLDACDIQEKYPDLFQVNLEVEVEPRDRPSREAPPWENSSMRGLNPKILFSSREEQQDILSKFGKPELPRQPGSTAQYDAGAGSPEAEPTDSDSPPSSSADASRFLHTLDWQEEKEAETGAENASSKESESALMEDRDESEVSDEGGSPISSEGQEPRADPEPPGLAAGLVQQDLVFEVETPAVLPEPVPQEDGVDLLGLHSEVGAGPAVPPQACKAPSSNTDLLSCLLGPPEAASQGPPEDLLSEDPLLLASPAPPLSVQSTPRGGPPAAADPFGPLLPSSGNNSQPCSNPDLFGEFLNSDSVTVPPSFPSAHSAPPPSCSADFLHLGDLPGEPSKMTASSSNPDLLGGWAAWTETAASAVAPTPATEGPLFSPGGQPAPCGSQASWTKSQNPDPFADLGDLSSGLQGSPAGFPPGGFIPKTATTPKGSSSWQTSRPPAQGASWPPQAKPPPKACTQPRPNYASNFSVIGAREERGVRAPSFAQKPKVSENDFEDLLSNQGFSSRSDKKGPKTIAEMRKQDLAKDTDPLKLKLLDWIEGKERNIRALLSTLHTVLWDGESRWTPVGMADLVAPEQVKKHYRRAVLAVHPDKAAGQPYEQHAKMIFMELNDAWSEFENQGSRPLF

[4] = tested on: prostate cancer cells that contain constitutively-active splice variants of the androgen receptor; parameters: method as in PMID 30973735; conditions: cited from earlier work
GAK [5] = target: T1, GAK; assay: TR-FRET ligand-binding displacement assay; conditions: TR-FRET assay; read-out: Biochemical GAK Ki
GAK [6] = target: T1, GAK; assay: live cell NanoBRET target engagement assay; assay type: cell-based; conditions: nanoBRET; mean average, n = 2
[7] = metabolite identification in mouse liver microsomes
Method: After centrifugation, the supernatant was subjected to analysis by LCMS, and structures of metabolites were assigned on the basis of their molecular weight and fragmentation pattern.
Compounds were incubated at a concentration of 10 µM with mouse liver microsomes in the presence of an excess of NADPH.
1.1. General Numbering of Metabolites
The metabolites are numbered according to their retention times in the gradient LC-MS analysis in positive […]
ion mode. […] The M number increases […]
consecutively for metabolites with increasing retention time.
To avoid confusion, labelled retention times of a metabolite peak in different injections are the same, which may lead to mismatch between labelled retention time and actual retention time.
General Strategy for Metabolite Identification
The vehicle control and study samples were injected into LC-MS with gradient elution using a Q1 scan method. Searching for potential metabolites was then performed using LightSight software (Applied Biosystems/MDS Sciex) by comparing a total ion current chromatogram of Q1 scan from a study sample with a chromatogram from the corresponding vehicle control sample. The study sample was then injected again to obtain the product ion spectra of potential metabolites using product ion scan methods. The fragmentation patterns of the potential metabolites were then compared to the fragmentation of the parent compound to elucidate the structures of the metabolites.
The assignment of fragments is shown
2.2. Identification of Metabolites in Mouse Liver Microsomal Incubation

BMP2K = BMP2K (Homo sapiens, UniProt Q9NSY1); assay: NAK family TR-FRET binding displacement assay
EGFR = conditions: read-out: EGFR KD; cited from earlier work
[8] = mouse liver microsomes, T1/2 (min), mouse liver microsomes with NADPH
[9] = male, C57BL/6, mouse, plasma, po, 2 h pretreat 50 mpk ABT
[10] = male, C57BL/6, mouse, plasma, po, without ABT
[11] = read-out: Kinetic Solubility µM
[12] = read-out: Kinetic Solubility µg/mL

Chain of STK16 (O75716 whole entry): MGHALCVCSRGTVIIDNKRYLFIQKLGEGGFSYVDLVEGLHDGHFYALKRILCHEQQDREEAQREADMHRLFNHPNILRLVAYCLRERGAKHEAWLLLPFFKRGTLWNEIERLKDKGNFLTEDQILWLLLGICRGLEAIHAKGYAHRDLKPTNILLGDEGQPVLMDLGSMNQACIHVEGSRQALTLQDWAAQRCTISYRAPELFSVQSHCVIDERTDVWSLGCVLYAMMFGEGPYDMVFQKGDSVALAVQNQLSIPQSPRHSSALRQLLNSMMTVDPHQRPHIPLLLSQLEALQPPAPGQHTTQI
Chain of AAK1 (Q2M2I8 whole entry): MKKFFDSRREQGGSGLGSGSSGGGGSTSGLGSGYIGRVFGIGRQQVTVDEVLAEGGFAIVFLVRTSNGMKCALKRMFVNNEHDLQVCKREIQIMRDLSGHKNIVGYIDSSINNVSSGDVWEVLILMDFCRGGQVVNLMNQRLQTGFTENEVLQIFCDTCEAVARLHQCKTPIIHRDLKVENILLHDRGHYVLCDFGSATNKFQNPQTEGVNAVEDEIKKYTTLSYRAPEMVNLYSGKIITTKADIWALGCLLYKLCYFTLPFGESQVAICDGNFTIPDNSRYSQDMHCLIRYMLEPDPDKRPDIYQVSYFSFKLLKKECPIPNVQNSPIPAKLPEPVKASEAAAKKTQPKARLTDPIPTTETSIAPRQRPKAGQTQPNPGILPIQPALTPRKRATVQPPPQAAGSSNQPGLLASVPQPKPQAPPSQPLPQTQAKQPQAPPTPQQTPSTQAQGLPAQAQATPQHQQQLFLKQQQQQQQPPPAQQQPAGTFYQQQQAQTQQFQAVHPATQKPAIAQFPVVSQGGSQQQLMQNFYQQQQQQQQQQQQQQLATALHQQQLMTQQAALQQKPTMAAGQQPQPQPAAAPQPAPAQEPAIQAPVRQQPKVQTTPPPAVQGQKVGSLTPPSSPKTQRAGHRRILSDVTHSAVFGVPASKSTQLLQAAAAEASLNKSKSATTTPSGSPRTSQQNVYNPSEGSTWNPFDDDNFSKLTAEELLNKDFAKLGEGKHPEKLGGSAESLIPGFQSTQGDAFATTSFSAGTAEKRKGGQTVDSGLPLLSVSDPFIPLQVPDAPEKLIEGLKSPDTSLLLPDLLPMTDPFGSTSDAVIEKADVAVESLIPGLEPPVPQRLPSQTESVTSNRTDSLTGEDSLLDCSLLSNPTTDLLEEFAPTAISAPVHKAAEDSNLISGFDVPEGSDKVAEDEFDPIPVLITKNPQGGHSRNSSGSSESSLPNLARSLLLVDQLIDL
Chain of BMP2K (Q9NSY1 whole entry): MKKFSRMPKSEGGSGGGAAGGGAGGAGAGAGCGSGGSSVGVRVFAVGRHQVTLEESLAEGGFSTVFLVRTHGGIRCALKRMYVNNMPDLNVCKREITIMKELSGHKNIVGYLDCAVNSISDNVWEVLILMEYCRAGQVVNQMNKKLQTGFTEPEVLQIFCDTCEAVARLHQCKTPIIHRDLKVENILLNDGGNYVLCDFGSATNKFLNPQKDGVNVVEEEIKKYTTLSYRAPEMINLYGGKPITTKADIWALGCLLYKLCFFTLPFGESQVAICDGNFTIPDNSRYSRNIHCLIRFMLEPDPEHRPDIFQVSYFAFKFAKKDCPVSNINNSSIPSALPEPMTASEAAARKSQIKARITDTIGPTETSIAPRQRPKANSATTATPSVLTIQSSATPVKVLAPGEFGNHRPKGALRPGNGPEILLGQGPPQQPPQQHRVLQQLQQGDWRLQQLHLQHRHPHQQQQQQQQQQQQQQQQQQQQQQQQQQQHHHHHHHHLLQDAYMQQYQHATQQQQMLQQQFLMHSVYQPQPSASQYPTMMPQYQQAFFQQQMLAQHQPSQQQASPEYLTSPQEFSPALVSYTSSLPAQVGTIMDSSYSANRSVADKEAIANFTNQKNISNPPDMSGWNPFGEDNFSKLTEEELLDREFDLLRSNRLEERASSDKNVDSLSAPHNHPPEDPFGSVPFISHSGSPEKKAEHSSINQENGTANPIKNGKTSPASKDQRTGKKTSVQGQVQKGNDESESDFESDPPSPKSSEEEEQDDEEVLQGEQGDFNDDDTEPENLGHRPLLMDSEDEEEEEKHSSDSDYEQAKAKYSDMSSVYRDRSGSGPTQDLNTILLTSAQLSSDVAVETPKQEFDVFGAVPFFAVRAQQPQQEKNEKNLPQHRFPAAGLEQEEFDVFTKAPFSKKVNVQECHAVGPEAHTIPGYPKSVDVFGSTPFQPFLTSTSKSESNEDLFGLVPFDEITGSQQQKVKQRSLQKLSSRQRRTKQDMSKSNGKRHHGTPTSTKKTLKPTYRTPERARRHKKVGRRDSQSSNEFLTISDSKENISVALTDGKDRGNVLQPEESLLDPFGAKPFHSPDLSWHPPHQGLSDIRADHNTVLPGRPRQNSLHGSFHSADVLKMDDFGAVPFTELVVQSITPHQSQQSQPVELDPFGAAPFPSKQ

## Nn1nnc2ccccc21 [ABT, 1-aminobenzotriazole]
CYP2A6
  inhibition of CYP2A6 activity: 100%
CYP3A4
  inhibition of CYP3A4 activity: 100%
CYP1A2
  residual activity CYP1A2: up to 20%
CYP2B6
  residual activity CYP2B6: up to 20%
CYP2C8
  residual activity CYP2C8: up to 20%
CYP2C9
  CYP2C9 activity remaining: 60%
CYP2C19
  residual activity CYP2C19: up to 20%
CYP2D6
  residual activity CYP2D6: up to 20%

## COc1cc(Nc2ccnc3ccc(Br)cc23)cc(OC)c1OC [Compound 1]
[1]; mouse liver microsomes in the absence of NADPH, over an hour
  degradation in MLM: No degradation
[1]; mouse liver microsomes, Clint (mL/min/kg) (+) ABT, mouse liver microsomes, (+) ABT
  CLint scaled: 40 mL/min/kg
[1]; mouse liver microsomes, Clint (mL/min/kg) (−) ABT, (−) ABT
  CLint scaled: 990 mL/min/kg
[1]; mouse liver microsomes, T1/2 (min) (+) ABT, mouse liver microsomes, (+) ABT
  half-life: 130 min
[1]; mouse liver microsomes, T1/2 (min) (−) ABT, (−) ABT
  half-life: 5.7 min
[1]; [8]
  half-life: 5.7 min
[2]; without ABT
  Cmax: 97 ng/mL
[2]; [9]
  AUC(0-inf): 1900 ng·h/mL
  Tmax: 30 min
[2]; male, C57BL/6, mouse, plasma, po, 2 h pretreat 50 mpk ABT, read-out: Cmax
  Cmax: 650 ng/mL
[2]; [10]
  AUC(0-inf): 98 ng·h/mL
  Tmax: 30 min
[2]; male, C57BL/6, mouse, plasma, po, without ABT, read-out: Cmax
  Cmax: < 100 ng/mL
[2]; male, mouse, plasma, without ABT, read-out: T1/2 in mice
  half-life: < 60 min
AAK1
  Ki: 53 µM
STK16
  Ki: 51 µM
Kinetic Solubility; [11]
  solubility kinetic: 57.8 µM
Kinetic Solubility; [12]
  solubility kinetic: 22.5 µg/mL
GAK [3]
  GAK DSF ΔTm: 7.7 °C
[4]
  viability of prostate cancer cells: potently inhibits

## Fc1ccc(Nc2ccnc3ccc(Br)cc23)c(F)c1 [Compound 11, 6-Bromo-N-(2,4-difluorophenyl)quinolin-4-amine]
GAK [5]
  Ki: 35 nM
GAK [6]
  IC50: 2700 nM
[1]; mouse liver microsomes, normalization with respect to internal control (propranolol)
  T1/2 Ratio: 0.47
[1]; [8]
  half-life: 3.2 min
[7]
  Primary Metabolism Site: Aniline
  Primary Metabolite Mass: Parent − F + OH
AAK1
  Ki: 5.7 µM
BMP2K
  Ki: 18 µM
STK16
  Ki: 11 µM
Kinetic Solubility; [11]
  solubility kinetic: 39.5 µM
Kinetic Solubility; [12]
  solubility kinetic: 13.2 µg/mL

## C#Cc1cccc(Nc2ncnc3cc(OCCOC)c(OCCOC)cc23)c1 [Erlotinib, erlotinib]
EGFR
  Kd: 0.7 nM
